Consider 18 molecules from the SangsterLogP compilation.

A short description of the series: method code SF-AS, from DOI: 10.1080/02772240109358997.
In the case of `Cc1ccc(S(=O)(=O)C(=Cc2ccccc2)C(=O)OC(C)C)cc1`, the logP is 3.92. The molecule `CCCCC(CCCC)(C(=O)OCC)S(=O)(=O)c1ccc([N+](=O)[O-])cc1` returned a logP of 3.81.

For the molecule `CCOC(=O)C(Cc1ccccc1)(Cc1ccccc1)S(=O)(=O)c1ccc([N+](=O)[O-])cc1`, the logP was found to be 3.4. For `COC(=O)C(C)S(=O)(=O)c1ccc([N+](=O)[O-])cc1` (stereo not drawn) the value was 1.06; for `CCOC(=O)CC(C(=O)OC)S(=O)(=O)c1ccc([N+](=O)[O-])cc1` (stereo not drawn), 1.4; for `COC(=O)C(=Cc1ccccc1)S(=O)(=O)c1ccc([N+](=O)[O-])cc1`, 2.9. For `CC(C)COC(=O)C(=Cc1ccccc1)S(=O)(=O)c1ccc([N+](=O)[O-])cc1` the value was 3.68; for `C=CCC(C)(C(=O)OCC)S(=O)(=O)c1ccc([N+](=O)[O-])cc1` (stereo not drawn), 2.3; for `CC(C)OC(=O)C(=Cc1ccccc1)S(=O)(=O)c1ccc(Cl)cc1`, 4.18.

As to `CCOC(=O)CC(CC(=O)OCC)(C(=O)OC(C)C)S(=O)(=O)c1ccc([N+](=O)[O-])cc1`, the logP is 3.56. `CC(C)OC(=O)C(=Cc1ccccc1)S(=O)(=O)c1ccc([N+](=O)[O-])cc1`: the logP is 3.62. `CCOC(=O)C(C)(c1cccc2ccccc12)S(=O)(=O)c1ccc([N+](=O)[O-])cc1` (stereo not drawn) registered a logP of 4.4.

As for `CC(C)OC(=O)CC(C(=O)OC(C)C)S(=O)(=O)c1ccc([N+](=O)[O-])cc1` (stereo not drawn), the logP was determined as 2.18. `CC(C(=O)OC1CCCCC1)S(=O)(=O)c1ccc([N+](=O)[O-])cc1` (stereo not drawn) had a logP of 2.82. For `CCCCC(CCCC)(C(=O)OC(C)C)S(=O)(=O)c1ccc([N+](=O)[O-])cc1` the value was 4.06; for `CCOC(=O)C(=Cc1ccccc1)S(=O)(=O)c1ccc([N+](=O)[O-])cc1`, 3.2. As to `COC(=O)C(C)(C)S(=O)(=O)c1ccc([N+](=O)[O-])cc1`, the logP turned out to be 1.38. `CCC(CC)(C(=O)OC)S(=O)(=O)c1ccc([N+](=O)[O-])cc1` displayed a logP of 2.24.

The term logP denotes the decadic logarithm of the partition coefficient of the neutral form, usually between octanol and water. Read a high logP as higher lipophilicity.
